Values joined by “and” are separate entries in the source; they are usually repeats but may differ in a detail not shown here. Equal values may be shown once.

The series in a line: solvent given as SMILES.

For the molecule `O=C(O)COc1ccc2[nH]c3c(c2c1)CCCC3=O`, the fluorescence lifetime (in C1CCOC1) turned out to be 0.319 ns; the fluorescence lifetime (in C1COCCO1) was determined as 0.537 ns; the fluorescence lifetime (in CC#N) was determined as 0.969 ns; the fluorescence lifetime (in CCCCCCCCCCCCO) amounted to 1.16 ns; the fluorescence lifetime (in CCCCCCCCCCO) amounted to 1.14 ns; the fluorescence lifetime (in CCCCCCCCO) was 1.19 ns. Moreover, the fluorescence lifetime runs as follows: (in CCCCCCO) 1.21 ns; (in CCCCO) 1.11 ns; (in CCO) 1.52 ns; (in CCOC(C)=O) 0.464 ns; (in CN(C)C=O) 1.91 ns; (in CO) 1.72 ns. Also, the fluorescence lifetime is, setting by setting: (in CS(C)=O) 2.34 ns; (in Cc1ccccc1) 0.585 ns; (in O) 1.77 ns; (in c1ccccc1) 0.632 ns.
`c1ccc(-c2nc(-c3ccc(-c4ccc(-c5nc(-c6ccccc6)c(-c6ccccc6)o5)cc4)cc3)oc2-c2ccccc2)cc1` displayed a fluorescence lifetime (in C1COCCO1) of 0.95 ns.
With `COc1ccc2c(-c3nc(-c4ccccc4)no3)cc(=O)oc2c1`, the fluorescence lifetime amounted to 6.4 ns (in CCO) and 4.8 ns (in ClC(Cl)Cl).
For the setting “in ClCCl”, `Cc1cc(C)n2c1C=C1c3ccccc3C(c3cccn3C)=[N+]1[B-]2(F)F` came in with a fluorescence lifetime of 6.91 ns.
Take `CC1=CC(C)=[N+]2C1=C(C)c1cccn1[B-]2(F)F`: the fluorescence lifetime runs as follows: (in CCCCCC) 6.1 ns; (in CO) 6.31 ns; (in ClCCl) 5.93 ns.
On to `Nc1cccc2cn[nH]c12`, for which the fluorescence lifetime by setting is: (in CC#N) 4.63 ns; (in CO) 1.69 ns; (in O) 1.74 ns.
On to `CC1=CC(C)=[N+]2C1=Cc1c(C)cc(C)n1[B-]2(F)F`, for which the fluorescence lifetime stood at 5.85 ns (in CCCCCC), 5.95 ns (in CO) and 5.73 ns (in ClCCl).
`FC(F)(F)C(F)(F)C(F)(F)C1=NC2=C(Br)C=C3c4cc(Br)c5nc(C(F)(F)C(F)(F)C(F)(F)F)nc6c(Br)cc(c4c56)=C4C=C(Br)C(=N1)C2C34` (stereo unspecified) yielded a fluorescence lifetime (in C1CCOC1) of 2.1 ns.
For the molecule `CCCCc1cc(-c2cccc(COC)c2)oc1-c1cccc(-c2oc(-c3cccc(COC)c3)cc2CCCC)c1`, the fluorescence lifetime (in ClC(Cl)Cl) was determined as 1.4 ns.
As to `FC(F)(F)C(F)(F)C(F)(F)C(F)(F)C(F)(F)C(F)(F)CCOc1nnc(Cl)nn1`, the fluorescence lifetime is 153 ns (in ClCCl) and 152 ns (in OCC(F)(F)F).
In the case of `COc1ccc(C2=Cc3c4ccccc4c4ccccc4[n+]3[B-](F)(F)O2)cc1`, where the note is “in ClC(Cl)Cl”, the fluorescence lifetime was found to be 1.58 ns.
In turn, `c1ccc(C2=C3c4ccccc4C4=[N+]3[B-]3(Oc5ccccc54)Oc4ccccc4-c4c5ccccc5c2n43)cc1` (stereo unspecified) had a fluorescence lifetime (in ClCCl) of 7 ns.
As for `CCC1=C(C)C2=C(C)c3c(I)c(I)cn3[B-](F)(F)[N+]2=C1C`, the fluorescence lifetime came out at 0.259 ns (in C1CCCCC1); 0.127 ns (in CC(C)=O); 0.125 ns (in CCO); 0.16 ns (in CCOC(C)=O); 0.122 ns (in CO); 0.147 ns (in OCC(F)(F)F).
As to `COC(=O)c1cc(=O)n(C)c2cc(-c3ccccc3OC)sc12`, under “in ClCCl”, the fluorescence lifetime came to 1.31 ns.
On to `c1cc2c3c(cccc3c1)C(N1CCOCCOCCN(C3=Nc4cccc5cccc3c45)CCOCC1)=N2`, for which, under “in CC#N”, the fluorescence lifetime came to 0.51 ns.
`c1ccc(-c2nnc(-c3ccc(N4c5ccccc5Oc5ccccc54)cc3)o2)cc1` had a fluorescence lifetime (in Cc1ccccc1) of 11 ns and a fluorescence lifetime (in c1ccc(-n2c(-c3c(-n4c5ccccc5c5ccccc54)cccc3-n3c4ccccc4c4ccccc43)nc3ccccc32)cc1) of 4.9 ns.
Take `c1ccc2ccccc2c1`: the fluorescence lifetime (in C1CCCCC1) was 168 ns and 96 ns.
For the molecule `CCN(CC)c1ccc2cc(-c3ccc(-c4c5ccccc5c(-c5ccc(-c6cc7ccc(N(CC)CC)cc7oc6=O)cc5)c5ccccc45)cc3)c(=O)oc2c1`, the fluorescence lifetime (in ClC(Cl)Cl) was found to be 8.9 ns.
The molecule `CCOC(=O)/N=c1/oc2c(OC)cccc2cc1C#N` had a fluorescence lifetime (in ClCCl) of 0.3 ns.
`O=C(O)c1ccccc1-c1nc(-c2ccccc2)c2ccccn12` had a fluorescence lifetime (in CC#N) of 5.5 ns.
As to `CC1=CC2=Nc3nc(C)[n+](C)cc3CN2C=C1`, the fluorescence lifetime came to 5.45 ns (in CC#N), 5.31 ns (in CCO) and 5.23 ns (in O).
`CC(C)(C)NC1=C2C=CC=[N+]2[B-](F)(F)n2cccc21`: the fluorescence lifetime by setting is: (in C1CCCCC1) 6.17 ns; (in CC(C)=O) 0.0272 ns; (in CCO) 0.0307 ns; (in CCOC(C)=O) 0.188 ns; (in CO) 0.019 ns; (in OCC(F)(F)F) 0.125 ns.
On to `CCCCc1ccc2c(c1)c1ccc3cccc4c3c1c1c2c2cccc3ccc5c6cc(CCCC)ccc6c4c1c5c32`, for which the fluorescence lifetime (in ClCCl) came out at 1.74 ns.
In turn, `Fc1nc(F)c(F)c(C#Cc2ccccc2C#Cc2c(F)c(F)nc(F)c2F)c1F` came in with a fluorescence lifetime (in CC#N) of 1.81 ns.
For `CN(C)c1ccc(/C=C/c2nc3c4ccccc4c4ccccc4c3[nH]2)cc1`, the fluorescence lifetime reads like this: (in C1CCOC1) 0.341 ns; (in C1COCCO1) 0.484 ns; (in CC1CCCCC1) 0.471 ns; (in CC#N) 0.356 ns; (in CCOC(C)=O) 0.325 ns; (in CCOCC) 0.391 ns. Further, the fluorescence lifetime amounted to 0.37 ns (in CN(C)C=O); 0.308 ns (in COC(C)=O); 0.384 ns (in CS(C)=O); 0.306 ns (in Cc1ccccc1); 0.138 ns (in ClC(Cl)Cl).
Consider `CC1=CC(C)=[N+]2C1=Cc1c3ccccc3c(C#Cc3ccc(F)cc3)n1[B-]2(F)F`, for which the fluorescence lifetime turned out to be 5.44 ns (in CCCCCC), 5.07 ns (in CCCCCCCCO), 5.32 ns (in CCOC(C)=O) and 4.92 ns (in CN(C)C=O).
Where the note is “in ClCCl”, `CCCCCCOc1cc(/C=C/c2cc(OCCCCCC)c(/C=C/c3cc(OCCCCCC)c(C=C4C(=O)c5ccccc5C4=O)cc3OCCCCCC)cc2OCCCCCC)c(OCCCCCC)cc1C=C1C(=O)c2ccccc2C1=O` registered a fluorescence lifetime of 1.22 ns.
On to `COc1ccc(-c2c3ccc([nH]3)c3nc(c(-c4ccc([N+](=O)[O-])cc4)c4ccc([nH]4)c4ccc([nH]4)c(-c4ccc(OC)cc4)c4ccc2o4)C=C3)cc1`, for which the fluorescence lifetime is, setting by setting: (in C1CCOC1) 0.66 ns; (in Cc1ccccc1) 4.33 ns; (in c1ccccc1) 4.2 ns.
For the molecule `CC[n+]1nc2cc3c4c(c2c2cc(C)ccc21)CCCN4CCC3`, under “in O”, the fluorescence lifetime is 4.2 ns.
On to `COc1ccc2c(c1)c1c(OC)c3ccccc3c(OC)c1n2C`, for which the fluorescence lifetime turned out to be 24.1 ns (in C1CCCCC1), 31 ns (in CC#N), 30.7 ns (in CO) and 27.1 ns (in ClCCl).
Consider `OCCSc1cccc2[n+]1[B-](F)(F)n1c(c3cccc4cccc1c43)=N2`, for which the fluorescence lifetime (in ClCCl) turned out to be 7.3 ns.
In the case of `N#Cc1c(-n2c3ccc(I)cc3c3cc(I)ccc32)c(-n2c3ccc(I)cc3c3cc(I)ccc32)c(C#N)c(-n2c3ccc(I)cc3c3cc(I)ccc32)c1-n1c2ccc(I)cc2c2cc(I)ccc21`, the fluorescence lifetime (in Cc1ccccc1) was determined as 0.1 ns.
For `CN(C)CCCN1c2ccccc2CCc2ccccc21`, the fluorescence lifetime reads like this: (in CC#N) 0.85 ns; (in CO) 0.54 ns; (in O) 1.12 ns.
Take `CC(C)[Si](C#CC1=CC2=c3cc(C#C[Si](C(C)C)(C(C)C)C(C)C)c4nc(C(F)(F)C(F)(F)C(F)(F)F)nc5c(C#C[Si](C(C)C)(C(C)C)C(C)C)cc(c3c54)C3=CC(C#C[Si](C(C)C)(C(C)C)C(C)C)=C4N=C(C(F)(F)C(F)(F)C(F)(F)F)N=C1C4C32)(C(C)C)C(C)C` (stereo unspecified): the fluorescence lifetime (in C1CCOC1) was found to be 2 ns.
As for `CCC1=C(C)C2=C(C)c3cccn3[B-](F)(F)[N+]2=C1C`, the fluorescence lifetime reads like this: (in C1CCCCC1) 5.46 ns; (in CC(C)=O) 5.66 ns; (in CCO) 5.73 ns; (in CCOC(C)=O) 5.57 ns; (in CO) 5.78 ns; (in OCC(F)(F)F) 6.17 ns.
For the setting “in CCOC(C)=O”, `OCc1cc2c(cc3ccc4cccc5ccc2c3c45)[nH]1` registered a fluorescence lifetime of 2.64 ns.
Regarding `CCCCN1C(=O)c2cc(Br)c3c4c(Br)cc5c6c(cc(Br)c(c7c(Br)cc(c2c37)C1=O)c64)C(=O)N(CCCC)C5=O`, the fluorescence lifetime (in ClC(Cl)Cl) was found to be 2.9 ns.
`Cn1c(=O)c(/N=N/c2ccc(Nc3ccc([N+](=O)[O-])cc3S(=O)(=O)O)cc2)c(O)c2ccccc21` gave a fluorescence lifetime (in CS(C)=O) of 0.03 ns.
Turning to `Cc1cc(=O)oc2cc(/[NH+]=C/C=C3/C=C(C(=O)O)NC(C(=O)O)C3)ccc12` (stereo unspecified), under “in O”, the fluorescence lifetime worked out at 0.038 ns.
Where the note is “in C1CCOC1”, `CCn1c2ccccc2c2cc(-c3cc(-c4ccc5c(c4)c4ccccc4n5CC)nc(-c4ccc(OC)cc4)n3)ccc21` yielded a fluorescence lifetime of 1.63 ns.
For `CCCCOC(=O)c1cc(Cl)c2c3c(Cl)cc4c5c(cc(Cl)c(c6c(Cl)cc(C(=O)OCCCC)c1c26)c53)C(=O)N(c1c(C(C)C)cccc1C(C)C)C4=O`, the fluorescence lifetime (in Cc1ccccc1) is 4.86 ns.
`CCCCCCCCCCCCn1cccc1/C=C/c1ccc(/C=C/c2cccn2CCCCCCCCCCCC)cc1` gave a fluorescence lifetime (in Cc1ccccc1) of 1.06 ns.
Take `F[B-]1(F)n2c(/C=C/c3ccc(C(=C(c4ccccc4)c4ccccc4)c4ccccc4)cc3)ccc2C(c2ccccc2)=C2C=CC(/C=C/c3ccc(C(=C(c4ccccc4)c4ccccc4)c4ccccc4)cc3)=[N+]21`: the fluorescence lifetime (in C1CCOC1) amounted to 3.98 ns.
In the case of `c1ccc2c(c1)CCc1c-2cnc2c1-c1ccccc1CC2`, the fluorescence lifetime was found to be 3.33 ns (in C1CCOC1); 3.66 ns (in CC#N); 3.14 ns (in CCCCCC); 3.46 ns (in CCOC(C)=O); 3.96 ns (in CO); 3.88 ns (in CS(C)=O). Further, the fluorescence lifetime runs as follows: (in Cc1ccccc1) 3.24 ns; (in ClCCl) 3.67 ns.
For the setting “in Cc1ccccc1”, `CC(C)(C)c1ccc(-c2nnc(-c3c(-n4c5ccccc5c5ccccc54)c(-n4c5ccccc5c5ccccc54)c(-c4nnc(-c5ccc(C(C)(C)C)cc5)o4)c(-n4c5ccccc5c5ccccc54)c3-n3c4ccccc4c4ccccc43)o2)cc1` displayed a fluorescence lifetime of 12.7 ns.
Where the note is “in ClCCl”, `COc1ccc(O)c(-c2nc(C)c3n2CCCC3)c1` registered a fluorescence lifetime of 1.12 ns.
Consider `COc1nc(Nc2ccc3c4cccc5cccc(c6cccc2c63)c54)nc(OC)n1`, for which the fluorescence lifetime stood at 3.5 ns (in CCOC(C)=O) and 4 ns (in CS(C)=O).

Values taken from the Deep4Chem optical property database.
